Assay results published in ChEMBL document CHEMBL4354862, “Peptidomimetic Vinyl Heterocyclic Inhibitors of Cruzain Effect Antitrypanosomal Activity” (J Med Chem, 2020).

Legend:
[1] = target: T1, Cruzipain (Trypanosoma cruzi, UniProt P25779); experiment: Inhibition of Trypanosoma cruzi cruzain assessed as rate constant for enzyme-inhibitor complex using Cbz-Phe-Arg-AMC as substrate and measured up to 40 mins by fluorescence assay; conditions: read-out: Ki(app)
[2] = Glutathione reactivity of the compound in 10% DMSO (v/v)/pH 8 Tris buffer assessed as GSH adduct formation by measuring rate of-thiolation at 2:1 molar ratio of GSH/inhibitor by HPLC-MS analysis; format: ADME
[3] = Glutathione reactivity of the compound in 10% DMSO (v/v)/pH 8 Tris buffer assessed as GSH adduct formation by measuring retention time at 0.5 mM by HPLC-MS analysis; format: ADME; conditions: pH 8, 500 µM
[4] = Glutathione reactivity of the compound in 10% DMSO (v/v)/pH 8 Tris buffer assessed as GSH adduct formation by measuring equilibrium constant measured after 90 mins by HPLC-MS analysis; format: ADME
[5] = Solubility of the compound in 10% DMSO v/v at 1 to 200 uM measured up to 120 mins; format: physicochemical; conditions: 2 h
[6] = tested on: Trypanosoma cruzi; experiment: Antitrypanosomal activity against axenic cultures of Trypanosoma cruzi Y ATCC 50832GFP epimastigotes supplemented with fresh medium containing compound daily for 5 days by coulter counting method; format: functional, organism-based; conditions: 120 h
[7] = tested on: C2C12; experiment: Cytotoxicity against mouse C2C12 cells assessed as reduction in cell viability measured after 48 hrs by 4',6-diamidino-2-phenylindole staining based microscopic analysis; conditions: c2c12, 48 h
[8] = target: Cruzipain (Trypanosoma cruzi) (UniProt P25779); experiment: Reversible inhibition of Trypanosoma cruzi cruzain assessed as rate constant K4 using Cbz-Phe-Arg-AMC as substrate preincubated for 1 hr followed by enzyme-compound mixture dilution in presence of substrate by fluorescence assay
Cruzipain (Trypanosoma cruzi), sequence (P25779 123-467 limits assumed): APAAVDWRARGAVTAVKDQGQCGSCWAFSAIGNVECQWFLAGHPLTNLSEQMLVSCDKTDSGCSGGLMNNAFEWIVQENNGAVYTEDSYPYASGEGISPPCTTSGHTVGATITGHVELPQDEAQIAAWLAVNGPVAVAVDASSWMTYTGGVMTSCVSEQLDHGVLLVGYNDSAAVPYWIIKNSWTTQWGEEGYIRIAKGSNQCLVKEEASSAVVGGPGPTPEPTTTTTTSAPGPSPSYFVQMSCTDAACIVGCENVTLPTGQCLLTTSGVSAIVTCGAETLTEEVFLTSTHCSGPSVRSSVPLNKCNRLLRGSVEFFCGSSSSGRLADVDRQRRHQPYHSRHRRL

[9] = tested on: NHDF; experiment: Cytotoxicity against HDF cells assessed as reduction in cell viability measured after 48 hrs by resazurin dye based fluorescence assay; conditions: human
[10] = target: Cruzipain (Trypanosoma cruzi) (UniProt P25779); experiment: Irreversible inhibition of Trypanosoma cruzi cruzain assessed as ratio of Kinact to Ki using Cbz-Phe-Arg-AMC as substrate by fluorescence assay
[11] = tested on: Trypanosoma brucei brucei; experiment: Antitrypanosomal activity against Trypanosoma brucei brucei ATCC PRA-381 procyclic trypomastigotes supplemented with fresh medium containing compound daily for 4 days by coulter counting method; format: functional, organism-based; conditions: ATCC PRA-381, 96 h
[12] = tested on: Trypanosoma brucei brucei; experiment: Antitrypanosomal activity against Trypanosoma brucei brucei ATCC PRA-383 bloodstream forms supplemented with fresh medium containing compound daily for 4 days by coulter counting method; conditions: ATCC PRA-383, 96 h
[13] = Glutathione reactivity of the compound in 10% DMSO (v/v)/pH 8 Tris buffer assessed as GSH adduct formation by measuring rate of-thiolation at 0.5 mM by HPLC-MS analysis; format: ADME; conditions: pH 8, 500 µM
[14] = tested on: Trypanosoma cruzi; experiment: Antitrypanosomal activity against Trypanosoma cruzi Brazil epimastigotes measured after 48 hrs by [3H]thymidine incorporation based beta-counting method; format: functional, organism-based
[15] = tested on: Trypanosoma cruzi; experiment: Antitrypanosomal activity against Trypanosoma cruzi Ca-I/72 infected in mouse C2C12 cells measured after 48 hrs by 4',6-diamidino-2-phenylindole staining based microscopic analysis; format: functional, organism-based; conditions: Ca-I/72, C2C12, 48 h
[16] = target: Cathepsin B (Homo sapiens, UniProt P07858); experiment: Inhibition of human Cathepsin B assessed as rate constant for enzyme-inhibitor-substrate complex using Cbz-Phe-Arg-AMC as substrate measured up to 40 mins by fluorescence assay
[17] = tested on: Trypanosoma cruzi; experiment: Potency index, ratio of K11777 IC50 to test compound IC50 for axenic cultures of Trypanosoma cruzi Y ATCC 50832GFP epimastigotes; format: functional
[18] = target: Cathepsin S (Homo sapiens, UniProt P25774); experiment: Inhibition of recombinant human Cathepsin S expressed in Escherichia coli assessed as rate constant for enzyme-inhibitor-substrate complex using Cbz-Phe-Arg-AMC as substrate measured up to 40 mins by fluorescence assay
Cathepsin S, sequence (P25774 whole entry): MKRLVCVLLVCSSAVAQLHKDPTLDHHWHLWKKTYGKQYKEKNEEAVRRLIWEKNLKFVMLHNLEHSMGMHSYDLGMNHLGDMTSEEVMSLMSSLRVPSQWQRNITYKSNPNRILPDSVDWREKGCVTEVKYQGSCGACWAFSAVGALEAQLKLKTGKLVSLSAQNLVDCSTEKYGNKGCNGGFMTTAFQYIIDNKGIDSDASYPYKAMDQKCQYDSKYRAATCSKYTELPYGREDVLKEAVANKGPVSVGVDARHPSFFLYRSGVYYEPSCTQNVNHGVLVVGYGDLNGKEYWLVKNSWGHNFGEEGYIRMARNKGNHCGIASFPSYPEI

[19] = Selectivity ratio of Ki for human Cathepsin B to Ki for Trypanosoma cruzi cruzain; format: toxicity
[20] = target: T1, Cruzipain; experiment: Inhibition of Trypanosoma cruzi cruzain using Cbz-Phe-Arg-AMC as substrate and measured up to 40 mins by fluorescence assay
[21] = Selectivity ratio of Ki for human Cathepsin L to Ki for Trypanosoma cruzi cruzain; format: toxicity
[22] = target: Procathepsin L (Homo sapiens, UniProt P07711); experiment: Inhibition of human Cathepsin L assessed as rate constant for enzyme-inhibitor-substrate complex using Cbz-Phe-Arg-AMC as substrate measured up to 40 mins by fluorescence assay
Procathepsin L, sequence (P07711 whole entry): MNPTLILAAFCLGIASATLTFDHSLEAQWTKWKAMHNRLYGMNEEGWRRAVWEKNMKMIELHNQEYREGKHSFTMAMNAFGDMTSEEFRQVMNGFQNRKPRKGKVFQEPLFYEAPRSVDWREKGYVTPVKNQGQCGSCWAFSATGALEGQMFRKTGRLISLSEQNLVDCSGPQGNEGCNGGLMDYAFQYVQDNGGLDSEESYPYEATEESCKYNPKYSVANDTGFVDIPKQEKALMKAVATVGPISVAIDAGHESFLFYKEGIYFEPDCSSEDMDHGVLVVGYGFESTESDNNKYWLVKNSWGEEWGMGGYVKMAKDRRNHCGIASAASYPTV

[23] = Selectivity index, ratio of CC50 for HDF cells to EC50 for Trypanosoma cruzi Ca-I/72 infected in mouse C2C12 cells; format: toxicity, cell-based; conditions: read-out: Ratio CC50/EC50
[24] = Selectivity ratio of Ki for human Cathepsin S to Ki for Trypanosoma cruzi cruzain; format: toxicity
[25] = target: Cruzipain (Trypanosoma cruzi) (UniProt P25779); experiment: Reversible inhibition of Trypanosoma cruzi cruzain assessed as rate constant K3 using Cbz-Phe-Arg-AMC as substrate preincubated for 1 hr followed by enzyme-compound mixture dilution in presence of substrate by fluorescence assay

T1 sequence (P25779 whole entry): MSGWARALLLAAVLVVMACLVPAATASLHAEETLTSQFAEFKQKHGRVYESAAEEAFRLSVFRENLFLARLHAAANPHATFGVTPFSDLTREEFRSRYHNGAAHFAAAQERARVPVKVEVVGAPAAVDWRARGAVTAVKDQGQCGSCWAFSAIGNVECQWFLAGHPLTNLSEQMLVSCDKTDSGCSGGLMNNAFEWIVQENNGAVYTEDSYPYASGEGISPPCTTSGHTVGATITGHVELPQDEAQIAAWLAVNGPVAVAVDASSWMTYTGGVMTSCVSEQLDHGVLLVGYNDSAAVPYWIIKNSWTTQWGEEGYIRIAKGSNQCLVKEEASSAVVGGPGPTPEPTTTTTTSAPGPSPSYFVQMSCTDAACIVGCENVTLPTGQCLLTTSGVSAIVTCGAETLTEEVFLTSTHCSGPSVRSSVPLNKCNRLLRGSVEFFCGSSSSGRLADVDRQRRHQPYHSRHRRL

**Q.** With O=C(N[C@@H](Cc1ccccc1)C(=O)N[C@H](/C=C/c1ncccn1)CCc1ccccc1)OCc1ccccc1 as the molecule, how does the Ki [1] read?
**A.** > 35 µM

**Q.** Which K [2] does the source give for C[n+]1ccsc1/C=C/[C@H](Cc1ccccc1)NC(=O)[C@H](Cc1ccccc1)NC(=O)OCc1ccccc1.[I-] here?
**A.** 0.015 mM⁻¹ s⁻¹

**Q.** What about the Retention_time [3] of the same molecule?
**A.** 3.61 min

**Q.** What about the Ke [4] of the same molecule?
**A.** 930 M⁻¹

**Q.** Which solubility [5] does the source give for O=C(N[C@@H](Cc1ccccc1)C(=O)N[C@H](/C=C/c1ccccn1)Cc1ccccc1)OCc1ccccc1 here?
**A.** <= 30 uM

**Q.** What about the EC50 [6] of the same molecule?
**A.** > 20 µM

**Q.** What about the CC50 [7] of the same molecule?
**A.** > 10 µM

**Q.** And the K [8]?
**A.** 0.0012 s⁻¹

**Q.** And the CC50 [9]?
**A.** > 100 µM

**Q.** With NC(=O)/C=C/[C@H](CCc1ccccc1)NC(=O)[C@H](Cc1ccccc1)NC(=O)OCc1ccccc1 as the molecule, how does the kinact/Ki [10] read?
**A.** 1700 M⁻¹ s⁻¹

**Q.** With O=C(N[C@@H](Cc1ccccc1)C(=O)N[C@H](/C=C/c1ccccc1)Cc1ccccc1)OCc1ccccc1 as the molecule, how does the solubility [5] read?
**A.** <= 2 uM

**Q.** For CN1CCN(C(=O)N[C@@H](Cc2ccccc2)C(=O)N[C@H](/C=C/c2ncccn2)CCc2ccccc2)CC1, which EC50 [6] is on record?
**A.** 20 µM

**Q.** And the EC50 [11]?
**A.** 15 µM

**Q.** What about the EC50 [12] of the same molecule?
**A.** > 20 µM

**Q.** What about the Ki [1] of the same molecule?
**A.** > 10 µM

**Q.** With O=C(N[C@@H](Cc1ccccc1)C(=O)N[C@H](/C=C/c1ncccn1)Cc1ccccc1)OCc1ccccc1 as the molecule, how does the solubility [5] read?
**A.** >= 100 uM

**Q.** And the CC50 [7]?
**A.** > 10 µM

**Q.** And the K [8]?
**A.** 0.0018 s⁻¹

**Q.** And the CC50 [9]?
**A.** > 100 µM

**Q.** For O=C(N[C@@H](Cc1ccccc1)C(=O)N[C@H](/C=C/c1ncco1)Cc1ccccc1)OCc1ccccc1, which EC50 [6] is on record?
**A.** > 20 µM

**Q.** And the EC50 [11]?
**A.** 27 µM

**Q.** And the CC50 [9]?
**A.** > 100 µM

**Q.** With CN1CCN(C(=O)N[C@@H](Cc2ccccc2)C(=O)N[C@H](/C=C/S(=O)(=O)c2ccccc2)CCc2ccccc2)CC1 [K-777] as the molecule, how does the K [13] read?
**A.** 0.00028 s⁻¹

**Q.** What about the EC50 [14] of the same molecule?
**A.** 60 µM

**Q.** What about the EC50 [6] of the same molecule?
**A.** > 20 µM

**Q.** And the Retention_time [3]?
**A.** 4.64 min

**Q.** And the EC50 [11]?
**A.** 1.7 µM

**Q.** What about the CC50 [7] of the same molecule?
**A.** > 10 µM

**Q.** And the EC50 [12]?
**A.** 0.09 µM

**Q.** And the CC50 [9]?
**A.** 60 to 100 µM

**Q.** And the EC50 [15]?
**A.** 0.7 µM

**Q.** With C[n+]1ccccc1/C=C/[C@H](CCc1ccccc1)NC(=O)[C@H](Cc1ccccc1)NC(=O)OCc1ccccc1 as the molecule, how does the Ki [16] read?
**A.** 37 µM

**Q.** What about the “Ratio IC50” value [17] of the same molecule?
**A.** 10

**Q.** What about the Ki [18] of the same molecule?
**A.** 320 nM

**Q.** What about the solubility [5] of the same molecule?
**A.** >= 50 uM

**Q.** And the K [2]?
**A.** 0.054 mM⁻¹ s⁻¹

**Q.** What about the “Ratio Ki” value [19] of the same molecule?
**A.** > 10

**Q.** And the EC50 [6]?
**A.** 2.1 µM

**Q.** And the Retention_time [3]?
**A.** 4.72 min

**Q.** And the EC50 [11]?
**A.** 5.9 µM

**Q.** What about the CC50 [7] of the same molecule?
**A.** > 10 µM

**Q.** What about the Ki [20] of the same molecule?
**A.** 2 to 4.3 µM

**Q.** What about the “Ratio Ki” value [21] of the same molecule?
**A.** > 10

**Q.** What about the K [8] of the same molecule?
**A.** 0.00019 s⁻¹

**Q.** What about the EC50 [12] of the same molecule?
**A.** 2.8 µM

**Q.** And the Ke [4]?
**A.** 2400 M⁻¹

**Q.** And the CC50 [9]?
**A.** > 100 µM

**Q.** And the Ki [22]?
**A.** 880 nM

**Q.** What about the Ki [1] of the same molecule?
**A.** 0.76 µM

**Q.** And the selectivity ratio [23]?
**A.** > 20

**Q.** What about the “Ratio Ki” value [24] of the same molecule?
**A.** > 10

**Q.** What about the EC50 [15] of the same molecule?
**A.** 5.4 µM

**Q.** And the K [25]?
**A.** 0.0012 to 0.004 s⁻¹

**Q.** With NC(=O)/C=C/[C@H](Cc1ccccc1)NC(=O)[C@H](Cc1ccccc1)NC(=O)OCc1ccccc1 as the molecule, how does the kinact/Ki [10] read?
**A.** 21.7 M⁻¹ s⁻¹

**Q.** For COc1ccnc(/C=C/[C@H](CCc2ccccc2)NC(=O)[C@H](Cc2ccccc2)NC(=O)OCc2ccccc2)c1, which Ki [1] is on record?
**A.** > 5 µM

**Q.** With O=C(N[C@@H](Cc1ccccc1)C(=O)N[C@H](/C=C/c1ccccn1)CCc1ccccc1)OCc1ccccc1 as the molecule, how does the EC50 [6] read?
**A.** > 20 µM

**Q.** And the EC50 [11]?
**A.** > 10 µM

**Q.** What about the CC50 [7] of the same molecule?
**A.** > 10 µM

**Q.** What about the EC50 [12] of the same molecule?
**A.** 4 µM

**Q.** What about the CC50 [9] of the same molecule?
**A.** > 100 µM

**Q.** What about the EC50 [15] of the same molecule?
**A.** 5.9 µM

**Q.** Which “Ratio IC50” value [17] does the source give for C[n+]1ccccc1/C=C/[C@H](Cc1ccccc1)NC(=O)[C@H](Cc1ccccc1)NC(=O)OCc1ccccc1.[I-] here?
**A.** 10

**Q.** What about the solubility [5] of the same molecule?
**A.** >= 50 uM

**Q.** What about the K [2] of the same molecule?
**A.** 0.037 mM⁻¹ s⁻¹

**Q.** And the “Ratio Ki” value [19]?
**A.** 40

**Q.** And the EC50 [6]?
**A.** 8.7 µM

**Q.** What about the EC50 [11] of the same molecule?
**A.** 13 µM

**Q.** And the CC50 [7]?
**A.** > 10 µM

**Q.** And the “Ratio Ki” value [21]?
**A.** >= 3

**Q.** What about the EC50 [12] of the same molecule?
**A.** 6.6 µM

**Q.** And the Ke [4]?
**A.** 7400 M⁻¹

**Q.** And the CC50 [9]?
**A.** > 100 µM

**Q.** And the selectivity ratio [23]?
**A.** > 10

**Q.** And the “Ratio Ki” value [24]?
**A.** >= 3

**Q.** And the EC50 [15]?
**A.** 9.9 µM

**Q.** Which solubility [5] does the source give for O=C(N[C@@H](Cc1ccccc1)C(=O)N[C@H](/C=C/c1ccc([N+](=O)[O-])cc1)Cc1ccccc1)OCc1ccccc1 here?
**A.** <= 2 uM

**Q.** With CN1CCN(C(=O)N[C@@H](Cc2ccccc2)C(=O)N[C@H](/C=C/C(N)=O)CCc2ccccc2)CC1 as the molecule, how does the kinact/Ki [10] read?
**A.** 1900 M⁻¹ s⁻¹
